Tests used:
[1] = biological target: T1, angiotensin II type 1 receptor (Oryctolagus cuniculus, UniProt P34976); experiment: Angiotensin II antagonistic activity in isolated rabbit blood vessels (angiotensin II-induced contraction of thoracic aorta ring); settings: angiotensin II (10 nM)-induced contraction, compound 1 nmol/L to 10 μmol/L, 37° C., read-out: IC50 (50% inhibition concentration of angiotensin II-induced contraction)
T1 construct: By using a specimen of isolated rabbit blood vessels; from tissue; host or cells: rabbit thoracic aorta ring (New Zealand White, male)
T1 sequence (P34976 1-359): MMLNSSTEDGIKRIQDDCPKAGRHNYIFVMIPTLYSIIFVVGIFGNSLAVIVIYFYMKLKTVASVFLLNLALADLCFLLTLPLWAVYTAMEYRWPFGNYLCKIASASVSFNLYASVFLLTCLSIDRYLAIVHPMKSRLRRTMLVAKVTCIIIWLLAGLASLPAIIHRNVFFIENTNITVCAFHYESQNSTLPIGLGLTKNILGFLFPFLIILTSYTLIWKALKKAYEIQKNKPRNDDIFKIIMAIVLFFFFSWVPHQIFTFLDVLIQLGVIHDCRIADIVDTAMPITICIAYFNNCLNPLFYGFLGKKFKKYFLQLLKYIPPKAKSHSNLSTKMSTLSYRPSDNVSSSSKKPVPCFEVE
Description: Angiotensin II Antagonistic Activity in Isolated Rabbit Blood Vessels
By using a specimen of isolated rabbit blood vessels, antagonistic activity of the compounds of the invention against angiotensin II type 1 receptor was estimated from a dose-response curve of angiotensin II-induced blood vessel contraction. Specifically, the specimen of thoracic aorta ring of a rabbit (New Zealand White: male, 2.4 to 3.0 kg) was suspended in a magnus bath filled with Krebs-Henseleite buffer (composition: 118 mM NaCl, 4.7 mM KCl, 2.55 mM CaCl2, 1.18 mM MgSO4, 1.18 mM KH2PO4, 24.88 mM NaHCO3, and 11.1 mM D-glucose), and angiotensin II (10 nM)-induced contraction was obtained in the presence of the compounds of each example (1 nmol/L to 10 μmol/L). During the measurement, the inside temperature of the magnus bath was maintained at 37° C. and the bath was continuously ventilated with a sufficient amount of mixed gas (95% O2 and 5% CO2). The angiotensin II-induced contraction was converted into a relative value (%) that is based on the angiotensin II (10 nM)—induced contraction in the absence of the compounds of each example. From the concentration-response curve obtained therefrom, 50% inhibition concentration (IC50 value) was calculated by using SAS Preclinical Package Ver 5.0 (trade name, manufactured by SAS institute Japan Co., Tokyo, Japan), which is a statistical analysis program.

[2] = biological target: T2, human PPARγ2 (Homo sapiens, UniProt P37231); experiment: PPARγ activation activity, Gal4-PPARγ2 LBD chimera luciferase transfection assay in COST cells; assay type: cell-based; settings: Gal4 (aa 1-147)/human PPARγ2 LBD (aa 182-505) chimera, luciferase reporter, 16 hours, rosiglitazone (3 to 10 μmol/L) = 100%, read-out: EC50 (50% effective concentration, PPARγ activation)
T2 construct: the amino acids 182 to 505 of human PPARγ2; expressed in transfected cells; host or cells: COST cells (so in the source)
T2 sequence (P37231 182-505): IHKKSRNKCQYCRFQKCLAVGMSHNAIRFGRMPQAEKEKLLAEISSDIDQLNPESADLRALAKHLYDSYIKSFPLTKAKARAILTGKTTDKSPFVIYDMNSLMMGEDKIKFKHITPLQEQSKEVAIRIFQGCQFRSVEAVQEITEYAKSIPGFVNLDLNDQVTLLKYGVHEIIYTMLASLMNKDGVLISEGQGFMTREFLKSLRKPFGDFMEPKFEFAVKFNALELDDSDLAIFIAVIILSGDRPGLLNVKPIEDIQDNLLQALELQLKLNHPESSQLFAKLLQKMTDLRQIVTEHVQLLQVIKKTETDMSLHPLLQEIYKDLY
Experimental: PPARγ Activation Activity
The agonistic activity of the compounds of the invention on PPARγ was measured based on the transfection assay using COST cells (DS Pharma Biomedical Co., Ltd., Osaka, Japan), which are the cell line derived from the kidney of the African green monkey. COST cells were cultured under 5% CO2 concentration, and DMEM medium containing 10% fetal bovine serum, glutamic acid, and antibiotics was used as a medium.
As an expression vector, a chimera in which DNA binding domain of Ga14, which is a yeast transcription factor, and ligand binding domain of human PPARγ2 are fused, i.e., a fused product between the amino acids 1 to 147 of Gal4 transcription factor and the amino acids 182 to 505 of human PPARγ2, was used. Furthermore, as a reporter vector, a firefly luciferase containing five copies of Gal4 recognition sequence in the promoter region was used. Plasmid transfection to the cells was performed according to a method which uses jetPEI (trade name, manufactured by Funakoshi Co., Ltd., Tokyo, Japan). Furthermore, β-galactosidase expression vector was employed as an internal standard.
After the transfection of the cells, the medium was replaced with a DMEM medium (containing 1% serum) added with the test compound, and the cells were further cultured for 16 hours. After that, the luciferase activity and β-galactosidase activity in the cell lysis solution were measured.
For the present test, dimethylsulfoxide (DMSO) was used for dissolution and dilution of the test compounds, and during the cell treatment, the DMSO concentration in DMEM medium (containing 1% serum) was adjusted to 0.1%. As a positive compound, rosiglitazone (trade name, manufactured by ALEXIS Corporation, Switzerland) was used. The percentage (%) of the luciferase activity of the each test compound (1 to 30 μmol/L) was calculated when the luciferase activity of rosiglitazone (3 to 10 μmol/L) is 100% and the luciferase activity in the absence of the test compound is 0%. The 50% effective concentration of the test compound (EC50, 50% effect concentration) was calculated by using SAS Preclinical Package Ver 5.0 (trade name, manufactured by SAS institute Japan Co., Tokyo, Japan), which is a statistical analysis program.

Structure (SMILES)	IC50 [1] [nM]	EC50 [2] [nM]
CCCCc1nc(C)nc(OCCO)c1Cc1ccc(-c2ccccc2-c2noc(=O)[nH]2)cc1 [Example 15, 3-{4′-{[4-butyl-6-(2-hydroxyethoxy)-2-methylpyrimidin-5-yl]methyl}-[1,1′-biphenyl]-2-yl}-1,2,4-oxadiazol-5(4H)-one]	770	1320
CCCCc1nc(C)nc(OC(Cc2ccccc2)C(=O)O)c1Cc1ccc(-c2ccccc2-c2noc(=O)[nH]2)cc1 (stereo not drawn) [Example 28, 2-{{6-butyl-2-methyl-5-{[2′-(5-oxo-4,5-dihydro-1,2,4-oxadiazol-3-yl)-[1,1′-biphenyl]-4-yl]methyl}pyrimidin-4-yl}oxy}-3-phenylpropionic acid]	640	
CCCCc1nc(C)nc(OCC(=O)O)c1Cc1ccc(-c2ccccc2-c2noc(=O)[nH]2)cc1 [Example 2, 2-{{6-butyl-2-methyl-5-{[2′-(5-oxo-4,5-dihydro-1,2,4-oxadiazol-3-yl)-[1,1′-biphenyl]-4-yl]methyl}pyrimidin-4-yl}oxy}acetic acid]	230	
CCCCc1nc(C)nc(OCC(=O)NCC)c1Cc1ccc(-c2ccccc2-c2noc(=O)[nH]2)cc1 [Example 4, 2-{{6-butyl-2-methyl-5-{[2′-(5-oxo-4,5-dihydro-1,2,4-oxadiazol-3-yl)-[1,1′-biphenyl]-4-yl]methyl}pyrimidin-4-yl}oxy}-N-ethylacetamide]	290	
CCCCc1nc(C)nc(OCC(=O)N(CC)CC)c1Cc1ccc(-c2ccccc2-c2noc(=O)[nH]2)cc1 [Example 5, 2-{{6-butyl-2-methyl-5-{[2′-(5-oxo-4,5-dihydro-1,2,4-oxadiazol-3-yl)-[1,1′-biphenyl]-4-yl]methyl}pyrimidin-4-yl}oxy}-N,N-diethylacetamide]	60	
CCCCc1nc(C)nc(OCC(C)=O)c1Cc1ccc(-c2ccccc2-c2noc(=O)[nH]2)cc1 [Example 22, 3-{4′-{[4-butyl-2-methyl-6-(2-oxopropoxy)pyrimidin-5-yl]methyl}-[1,1′-biphenyl]-2-yl}-1,2,4-oxadiazol-5(4H)-one]	100	950
CCCCc1nc(C)nc(OC(C(=O)O)c2ccccc2)c1Cc1ccc(-c2ccccc2-c2noc(=O)[nH]2)cc1 (stereo not drawn) [Example 26, 2-{{6-butyl-2-methyl-5-{[2′-(5-oxo-4,5-dihydro-1,2,4-oxadiazol-3-yl)-[1,1-biphenyl]-4-yl]methyl}pyrimidin-4-yl}oxy}-2-phenylacetic acid]	380	2920
CCCCc1nc(C)nc(OCCOC)c1Cc1ccc(-c2ccccc2-c2noc(=O)[nH]2)cc1 [Example 33, 3-{4′-{[4-butyl-6-(2-methoxyethoxy)-2-methylpyrimidin-5-yl]methyl}-[1,1′-biphenyl]-2-yl}-1,2,4-oxadiazol-5(4H)-one]	480	920
CCCCc1nc(C)nc(OCC(=O)OCC)c1Cc1ccc(-c2ccccc2-c2noc(=O)[nH]2)cc1 [Example 1, ethyl 2-{{6-butyl-2-methyl-5-{[2′-(5-oxo-4,5-dihydro-1,2,4-oxadiazol-3-yl)-[1,1′-biphenyl]-4-yl]methyl}pyrimidin-4-yl}oxy}acetate]	810	1050
CCCCc1nc(C)nc(OC(C(=O)OC)c2ccccc2)c1Cc1ccc(-c2ccccc2-c2noc(=O)[nH]2)cc1 (stereo not drawn) [Example 25, methyl 2-{{6-butyl-2-methyl-5-{[2′-(5-oxo-4,5-dihydro-1,2,4-oxadiazol-3-yl)-[1,1-biphenyl]-4-yl]methyl}pyrimidin-4-yl}oxy}-2-phenylacetate]		730
CCCCc1nc(C)nc(OCCOC(C)C)c1Cc1ccc(-c2ccccc2-c2noc(=O)[nH]2)cc1 [Example 16, 3-{4′-{[4-butyl-6-(2-isopropoxyethoxy)-2-methylpyrimidin-5-yl]methyl}-[1,1′-biphenyl]-2-yl}-1,2,4-oxadiazol-5(4H)-one]		640
CCCCc1nc(C)nc(OCCSC)c1Cc1ccc(-c2ccccc2-c2noc(=O)[nH]2)cc1 [Example 17, 3-{4′-{{4-butyl-2-methyl-6-[2-(methylthio)ethoxy]pyrimidin-5-yl}methyl}-[1,1′-biphenyl]-2-yl}-1,2,4-oxadiazol-5(4H)-one]		410
CCCCCc1nc(C)nc(OCCOC)c1Cc1ccc(-c2ccccc2-c2noc(=O)[nH]2)cc1 [Example 37, 3-{4′-{[4-(2-methoxyethoxy)-2-methyl-6-pentylpyrimidin-5-yl]methyl}-[1,1′-biphenyl]-2-yl}-1,2,4-oxadiazol-5(4H)-one]		840
CCCCc1nc(C)nc(OC2CCC(O)CC2)c1Cc1ccc(-c2ccccc2-c2noc(=O)[nH]2)cc1 (stereo not drawn) [Example 34, 3-{4′-{{4-butyl-6-[(4-hydroxycyclohexyl)oxy]-2-methylpyrimidin-5-yl]methyl}-[1,1′-biphenyl]-2-yl}-1,2,4-oxadiazol-5 (4H)-one]		1360
CCCCc1nc(C)nc(OC2CCC(=O)CC2)c1Cc1ccc(-c2ccccc2-c2noc(=O)[nH]2)cc1 [Example 35, 3-{4′-{{4-butyl-2-methyl-6-[(4-oxocyclohexyl)oxy]pyrimidin-5-yl}methyl}-[1,1′-biphenyl]-2-yl}-1,2,4-oxadiazol-5(4H)-one]		1530
CCCCc1nc(C)nc(OCCCCOC)c1Cc1ccc(-c2ccccc2-c2noc(=O)[nH]2)cc1 [Example 23, 3-{4′-{[4-butyl-6-(4-methoxybutoxy)-2-methylpyrimidin-5-yl]methyl}-[1,1′-biphenyl]-2-yl}-1,2,4-oxadiazol-5(4H)-one]		710
CCCCc1nc(C)nc(OCCOCCC)c1Cc1ccc(-c2ccccc2-c2noc(=O)[nH]2)cc1 [Example 12, 3-{4′-{[4-butyl-2-methyl-6-(2-propoxyethoxy)pyrimidin-5-yl]methyl}-[1,1′-biphenyl]-2-yl}-1,2,4-oxadiazol-5(4H)-one]		570
CCCCc1nc(C)nc(OCCCC(=O)N(CC)CC)c1Cc1ccc(-c2ccccc2-c2noc(=O)[nH]2)cc1 [Example 10, 4-{{6-butyl-2-methyl-5-{[2′-(5-oxo-4,5-dihydro-1,2,4-oxadiazol-3-yl)-[1,1′-biphenyl]-4-yl]methyl}pyrimidin-4-yl}oxy}-N,N-diethylbutanamide]		1790
CCCCc1nc(C)nc(OCCOCC)c1Cc1ccc(-c2ccccc2-c2noc(=O)[nH]2)cc1 [Example 11, 3-{4′-{[4-butyl-6-(2-ethoxyethoxy)-2-methylpyrimidin-5-yl]methyl}-[1,1′-biphenyl]-2-yl}-1,2,4-oxadiazol-5(4H)-one]		870
